Assay results reported in the supplement of paper PMC10307832.

How the values were obtained:
Assay in all cases: relative viability (nuclei count vs DMSO), 5 days (fraction); higher = more cells survive
[1] = compound: CCn1c(-c2nonc2N)nc2c(C#CC(C)(C)O)ncc(OC[C@H]3CCCNC3)c21 + Cc1cc(Nc2cc(N3CCN(C)CC3)nc(Sc3ccc(NC(=O)C4CC4)cc3)n2)n[nH]1 [Tozasertib] (partner 0.1 µM)
Method in brief: (§1)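 For relative viability, nuclei counts in treated wells were divided by those in vehicle wells. Lung cancer cell lines had been pin-tool dosed in 1536-well plates the day after seeding and cultured for 5 days, then fixed and stained in one step (final 0.05% Triton X-100, 1% formaldehyde, 1 ug/ml Hoechst) and imaged at 4×. Doses were one drug alone or a fixed anchor-drug dose plus five library-drug doses (not always all listed) in √10 steps, and values are duplicate-plate medians.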

[2] = compound: CCn1c(-c2nonc2N)nc2c(C#CC(C)(C)O)ncc(OC[C@H]3CCCNC3)c21 + O=C(c1cc(Cc2n[nH]c(=O)c3ccccc23)ccc1F)N1CCN(C(=O)C2CC2)CC1 [Olaparib] (partner 8 µM)
Method in brief: as §1

[3] = compound: CCOC1=CC=CC=C1N=NC2=C(NN(C2=O)C3=NC(=CS3)C4=CC=CC=C4)C [BAM7] + CS(=O)(=O)CCNCc1ccc(-c2ccc3ncnc(Nc4ccc(OCc5cccc(F)c5)c(Cl)c4)c3c2)o1 [Lapatinib] (partner 2 µM)
Method in brief: as §1

[4] = compound: CCn1c(-c2nonc2N)nc2c(C#CC(C)(C)O)ncc(OC[C@H]3CCCNC3)c21 + Cc1nc(NC(=O)N2CCC[C@H]2C(N)=O)sc1-c1ccnc(C(C)(C)C(F)(F)F)c1 [Alpelisib] (partner 2 µM)
Method in brief: as §1

| Cell Line | relative viability ([1]; first compound 0.01 µM) | relative viability ([1]; first compound 0.03162 µM) | relative viability ([1]; first compound 0.1 µM) | relative viability ([1]; first compound 0.3162 µM) | relative viability ([1]; first compound 1 µM) | relative viability ([2]; first compound 0.01 µM) | relative viability ([2]; first compound 0.03162 µM) | relative viability ([2]; first compound 0.1 µM) | relative viability ([2]; first compound 0.3162 µM) | relative viability ([2]; first compound 1 µM) | relative viability ([3]; first compound 0.5 µM) | relative viability ([3]; first compound 5 µM) | relative viability ([3]; first compound 15.81 µM) | relative viability ([3]; first compound 50 µM) | relative viability ([4]; first compound 0.01 µM) | relative viability ([4]; first compound 0.03162 µM) | relative viability ([4]; first compound 0.1 µM) | relative viability ([4]; first compound 0.3162 µM) | relative viability ([4]; first compound 1 µM) |
| --- | --- | --- | --- | --- | --- | --- | --- | --- | --- | --- | --- | --- | --- | --- | --- | --- | --- | --- | --- |
| ChaGo-K-1 | 0.216 | 0.245 | 0.228 | 0.248 | 0.248 | 0.397 | 0.443 | 0.408 | 0.408 | 0.398 | – | – | – | – | – | – | – | – | – |
| EBC-1 | – | – | – | – | – | 0.652 | 0.706 | 0.676 | 0.516 | 0.557 | 0.203 | 0.248 | 0.233 | 0.251 | 0.822 | 0.973 | 0.763 | 0.62 | 0.628 |
| EKVX | 0.341 | 0.37 | 0.416 | 0.405 | 0.368 | 0.89 | 0.986 | 0.926 | 0.768 | 0.757 | 0.199 | 0.201 | 0.192 | 0.507 | 0.937 | 0.943 | 0.862 | 0.842 | 0.919 |
| EMC-BAC-2 | 0.297 | 0.287 | 0.268 | 0.255 | 0.262 | 0.457 | 0.501 | 0.503 | 0.454 | 0.468 | 0.943 | 0.936 | 0.962 | 0.968 | 0.756 | 0.73 | 0.7 | 0.759 | 0.784 |
| EPLC-272H | 0.337 | 0.512 | 0.261 | 0.186 | 0.274 | 0.833 | 0.853 | 0.641 | 0.56 | 0.507 | 0.879 | 0.924 | 0.94 | 0.963 | 0.962 | 1.02 | 0.989 | 0.858 | 0.956 |
| H3255 | 0.549 | 0.646 | 0.63 | 0.547 | 0.615 | 0.571 | 0.59 | 0.638 | 0.483 | 0.564 | 0.251 | 0.242 | 0.247 | 0.278 | 0.659 | 0.705 | 0.692 | 0.562 | 0.607 |
| HARA | 0.13 | 0.106 | 0.143 | 0.0993 | 0.109 | 0.909 | 0.903 | 0.808 | 0.687 | 0.763 | 0.68 | 0.777 | 0.682 | 0.793 | 0.843 | 0.884 | 0.824 | 0.781 | 0.861 |
| HCC-15 | 0.393 | 0.439 | 0.338 | 0.427 | 0.384 | 0.691 | 0.735 | 0.803 | 0.672 | 0.628 | 0.912 | 0.896 | 0.908 | 0.865 | 0.868 | 0.945 | 0.86 | 0.832 | 0.946 |
| HCC-44 | – | – | 1.08 | 0.79 | 1.08 | 0.995 | 1.02 | 0.977 | 0.955 | 0.994 | 1.09 | 1.02 | 1 | 0.983 | 0.732 | 0.818 | 0.794 | 0.761 | 0.786 |
